Reference: patent US20050209157A1, “Short bioactive peptides and methods for their use” (priority 2001, published 2005)
No end group written: not given here.

Tests used:
[1] = in vitro; conditions: human, WI38 normal lung fibroblast cells, LD50 WI38, WI38 normal lung fibroblast line, MTT, 24 hours with peptide
Experimental: (§6) Viability of cells is determined by the dye response. In the following procedure, approximately 1.5×10^4 cells per well were added and viability was determined with the cells in a semi-confluent state. The assay was performed in a 96-well microtiter plate. After addition of peptide, the plate was set for 24 hours. MTT (5 mg/ml in phenol red-free RPMI-1640, 20 μl) was added to each well including positive control wells untreated with peptide. The plate was incubated at 37° C. for 4 hours. The liquid contents of each well was removed, and isopropanol with 0.1 M HCl (100 μl) was added to each well. The plate was sealed with parafilm to prevent evaporation of the isopropanol. The plate is allowed to rest for 5-10 minutes in order to solubilize the precipitate. Purified water (100 μl) was added to each well. Absorbance was determined with an ELISA Reader instrument. Color intensity at 540 nm is proportional to viability of cells.
(§7) WI38 (ATCC No. CCL75) is a normal fibroblast line of lung diploid cells, MCF7 (ATCC No. HTB22) is a breast adenocarcinoma tumor cell line, SW480 (ATCC No. CCL228) is a colon adenocarcinoma tumor cell line, BMKC is a cloned melanoma line derived from Bowes melanoma line HMCB (ATCC No. CRL9607), H1299 (ATCC No. CRL5803) is a lung large cell carcinoma tumor line, HeLaS3 (ATCC No. CCL2.2) is a cervical epitheleal carcinoma tumor cell line, and PC3 (ATCC No. CRL1435) is a prostate adenocarcinoma tumor cell line.

[2] = in vitro; assay type: cell-based, human; conditions: human, human red blood cells, pH 7, hemolytic assay, concentration at 50% hemolysis, 1 hour at 37° C.; read-out: LD50
Experimental: This hemolytic assay is based upon that presented in Journal of Peptide Research 53: 82-90 (1999). […] All procedures were performed according to safety protocols pertaining to the handling and disposal of human body fluids.
Red blood cells (RBCs) were washed three times with PBS (35 mM phosphate buffer 0.15 M NaCl, pH 7.0). RBCs suspended in PBS (0.4% (v/v); about 10 ml per 15 peptides) were prepared. Suspensions (100 μl) were aliquoted to each sample and control tube. Serially diluted peptide solutions (100 μl) were pipetted into the sample tubes. Negative control tubes contained 100 μl PBS; positive control tubes contained 100 μl 1% Triton-X100 detergent. All tubes were incubated for 1 hour at 37° C. The tubes were removed from the incubator and centrifuged at 1000 g for 5 minutes. Supernatant (100 μl) was pipetted to a 96-well polyvinyl chloride plate. The absorbance at 414 nm (A414) was measured, and used to calculate the percent hemolysis according to the following formula. [formula]

[3] = system: HeLaS3; test: Anti-cancer assay, MTT, LD50; assay type: cell-based; conditions: 24 hours with peptide, cervical carcinoma
Excerpt: (§1) Numbers are LD50 values (μg/mL).

[4] = system: MCF7; test: Anti-cancer assay, MTT, LD50; assay type: cell-based; conditions: MCF7 breast adenocarcinoma line, MTT, 24 hours with peptide
Excerpt: as §1

[5] = system: H1299; test: Anti-cancer assay, MTT, LD50; assay type: cell-based; conditions: 24 hours with peptide, lung large cell carcinoma
Excerpt: as §1

[6] = system: SW480; test: Anti-cancer assay, MTT, LD50; assay type: cell-based; conditions: SW480 colon adenocarcinoma line, 24 hours with peptide
Excerpt: as §1

[7] = system: PC3; test: Anti-cancer assay, MTT, LD50; assay type: cell-based; conditions: 24 hours with peptide, prostate adenocarcinoma
Excerpt: as §1

[8] = system: BMKC; test: Anti-cancer assay, MTT, LD50; assay type: cell-based; conditions: BMKC cloned melanoma line, 24 hours with peptide
Excerpt: as §1

[9] = system: WI38; conditions: MTT, 24 hours with peptide; normal fibroblast line
Experimental: as §6, §7

[10] = system: Pseudomonas aeruginosa ATCC 9027; test: Antimicrobial assay I, MIC by OD measurement; assay type: cell-based; conditions: 37° C. for 24 hours, absorbance 620 nm
Excerpt: (§2) The data for the following antimicrobial assay of the peptides have been obtained by making OD measurements in in vitro cell culture experiments with and without added peptide. The protocol used is as follows.
(§3) Cell lines included Staphylococcus aureus ATCC 6538 or 25923, Pseudomonas aeruginosa ATCC 9027 or 27853. Medium used were Antibiotic Medium 3 (Difco), Antibiotic Medium 2 (Difco), and 0.85% saline. Controls used were physiological saline, and gentamycin at 50, 25, 10, 5, 1, and 0.1 ppm.
(§4) Absorbance was read at 620 nm after shaking to resuspend cells.
(§5) Staph6538 is Staphylococcus aureus ATCC accession number 6538; paerug9027 is Pseudomonas aeruginosa ATCC accession number 9027, yeast is Saccharomyces cerevisiae.

[11] = system: Staphylococcus aureus ATCC 6538; test: Antimicrobial assay I, MIC by OD measurement; assay type: cell-based; conditions: 37° C. for 24 hours, absorbance 620 nm
Excerpt: as §2, §3, §4, §5

[12] = system: yeast (Saccharomyces cerevisiae); test: Antimicrobial assay I, yeast assay in RPMI 1640; assay type: cell-based; conditions: RPMI 1640 media
Experimental: as §2, §4
The yeast assay was performed in RPMI 1640 media (pH 7.0 at 25° C.).
as §5

Row | Substance | CC50 at 24 h [1] | HC50 at 1 h [2] | HeLaS3 LD50 [3] | LD50 MCF7 [4] | H1299 LD50 [5] | LD50 SW480 [6] | PC3 LD50 [7] | LD50 BMKC [8] | WI38 LD50 [9] | paerug9027 (MIC) [10] | staph6538 (MIC) [11] | yeast (MIC or MFC) [12]
1 | FKRLAKIKVLRLAKIKR-NH2 [P147] | 83 mg/L | 300 µg/mL | > (> indicates greater than 1000) | 106 µg/mL | 93 µg/mL | 185 µg/mL | 340 µg/mL | 110 µg/mL | 83 µg/mL | 5 mg/L | 5 mg/L | 200 mg/L
2 | FAKLLAKLAKAKL-NH2 [P65] | 320 mg/L | 950 µg/mL | 210 µg/mL | 475 µg/mL | 450 µg/mL | 345 µg/mL | 470 µg/mL | 250 µg/mL | 320 µg/mL | 50 mg/L | 15 mg/L | 200 mg/L
3 | FALALKALKKAL-NH2 [P144, FALALKALKKAL-NH2] | 750 mg/L | 600 µg/mL | 275 µg/mL | 150 µg/mL | 225 µg/mL | 285 µg/mL | 350 µg/mL | 250 µg/mL | 750 µg/mL | 50 mg/L | 5 mg/L | 50 mg/L
4 | KWKLAKKALALL-NH2 [P142] | 73 mg/L | 900 µg/mL | 55 µg/mL | 44 µg/mL | 115 µg/mL | 38 µg/mL | 60 µg/mL | 38 µg/mL | 73 µg/mL | 50 mg/L | 100 mg/L | 100 mg/L
5 | FALALKLAKKAL-NH2 [P167, FALALKLAKKAL-NH2] | 260 mg/L | 200 µg/mL | 325 µg/mL | 230 µg/mL | 300 µg/mL | 360 µg/mL | 320 µg/mL | 240 µg/mL | 260 µg/mL | 25 mg/L | 10 mg/L | 100 mg/L
6 | LKKLAKLALAF-NH2 [P179] | 540 mg/L | 850 µg/mL | > (> indicates greater than 1000) | 555 µg/mL | > (> indicates greater than 1000) | > (> indicates greater than 1000) | > (> indicates greater than 1000) | 920 µg/mL | 540 µg/mL | 50 mg/L | 50 mg/L | 100 mg/L
